Results reported in patent US20260049071A1, “PROTEIN TYROSINE KINASE INHIBITOR AND MEDICAL USE THEREOF” (BEYANG THERAPEUTICS CO., LTD., priority 2022, published 2026).

Experiments:
KDR (VEGFR2) = KDR (VEGFR2) (Homo sapiens (Human), UniProt P35968); assay: Kinase inhibition, Mobility Shift Assay (VEGFR2); format: biochemical
How it was run: (§1)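 Mobility shift assay: each kinase preincubated 10 min at room temperature with compound, then reacted with FAM-labeled peptide, MgCl2 and ATP at 28° C. for varying times. Substrate-to-product conversion read on Caliper; % inhibition normalised to no-kinase and DMSO controls, and IC50 fitted.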

EGFR = EGFR (Homo sapiens (Human), UniProt P00533); assay: Kinase inhibition, Mobility Shift Assay (EGFR); format: biochemical
Chain of EGFR (P00533 25-1210): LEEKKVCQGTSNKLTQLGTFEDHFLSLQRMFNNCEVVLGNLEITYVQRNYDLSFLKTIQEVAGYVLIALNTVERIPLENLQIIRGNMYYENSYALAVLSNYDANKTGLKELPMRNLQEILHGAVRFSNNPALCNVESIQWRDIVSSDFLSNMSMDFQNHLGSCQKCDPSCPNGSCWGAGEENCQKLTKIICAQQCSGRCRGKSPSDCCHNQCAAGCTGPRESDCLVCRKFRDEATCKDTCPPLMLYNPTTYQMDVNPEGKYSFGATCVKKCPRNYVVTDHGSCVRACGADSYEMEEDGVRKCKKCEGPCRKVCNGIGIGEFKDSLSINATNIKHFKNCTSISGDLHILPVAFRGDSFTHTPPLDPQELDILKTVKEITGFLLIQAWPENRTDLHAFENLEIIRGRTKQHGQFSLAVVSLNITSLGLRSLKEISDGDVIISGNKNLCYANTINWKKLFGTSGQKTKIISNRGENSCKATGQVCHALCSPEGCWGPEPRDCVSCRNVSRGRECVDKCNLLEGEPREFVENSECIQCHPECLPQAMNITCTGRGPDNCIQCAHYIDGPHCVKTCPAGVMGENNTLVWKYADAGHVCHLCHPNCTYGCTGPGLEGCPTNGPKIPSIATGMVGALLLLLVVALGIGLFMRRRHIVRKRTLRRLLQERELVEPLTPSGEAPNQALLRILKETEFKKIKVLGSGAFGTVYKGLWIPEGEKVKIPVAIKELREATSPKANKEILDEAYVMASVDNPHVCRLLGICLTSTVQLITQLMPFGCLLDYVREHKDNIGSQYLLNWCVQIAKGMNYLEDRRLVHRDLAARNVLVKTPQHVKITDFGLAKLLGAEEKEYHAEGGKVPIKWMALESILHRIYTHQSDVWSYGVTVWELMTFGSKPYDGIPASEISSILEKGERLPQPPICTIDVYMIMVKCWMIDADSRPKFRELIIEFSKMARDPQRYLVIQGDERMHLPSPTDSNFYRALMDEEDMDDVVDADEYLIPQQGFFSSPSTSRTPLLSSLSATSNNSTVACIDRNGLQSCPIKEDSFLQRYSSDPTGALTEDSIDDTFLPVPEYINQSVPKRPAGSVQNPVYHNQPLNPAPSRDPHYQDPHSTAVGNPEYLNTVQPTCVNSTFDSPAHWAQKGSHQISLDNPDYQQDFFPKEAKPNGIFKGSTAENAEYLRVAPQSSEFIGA
How it was run: as §1

FLT1 (VEGFR1) = FLT1 (VEGFR1) (Homo sapiens (Human), UniProt P17948); assay: Kinase inhibition, Mobility Shift Assay (VEGFR1); format: biochemical
Chain of FLT1 (VEGFR1) (P17948 27-1338): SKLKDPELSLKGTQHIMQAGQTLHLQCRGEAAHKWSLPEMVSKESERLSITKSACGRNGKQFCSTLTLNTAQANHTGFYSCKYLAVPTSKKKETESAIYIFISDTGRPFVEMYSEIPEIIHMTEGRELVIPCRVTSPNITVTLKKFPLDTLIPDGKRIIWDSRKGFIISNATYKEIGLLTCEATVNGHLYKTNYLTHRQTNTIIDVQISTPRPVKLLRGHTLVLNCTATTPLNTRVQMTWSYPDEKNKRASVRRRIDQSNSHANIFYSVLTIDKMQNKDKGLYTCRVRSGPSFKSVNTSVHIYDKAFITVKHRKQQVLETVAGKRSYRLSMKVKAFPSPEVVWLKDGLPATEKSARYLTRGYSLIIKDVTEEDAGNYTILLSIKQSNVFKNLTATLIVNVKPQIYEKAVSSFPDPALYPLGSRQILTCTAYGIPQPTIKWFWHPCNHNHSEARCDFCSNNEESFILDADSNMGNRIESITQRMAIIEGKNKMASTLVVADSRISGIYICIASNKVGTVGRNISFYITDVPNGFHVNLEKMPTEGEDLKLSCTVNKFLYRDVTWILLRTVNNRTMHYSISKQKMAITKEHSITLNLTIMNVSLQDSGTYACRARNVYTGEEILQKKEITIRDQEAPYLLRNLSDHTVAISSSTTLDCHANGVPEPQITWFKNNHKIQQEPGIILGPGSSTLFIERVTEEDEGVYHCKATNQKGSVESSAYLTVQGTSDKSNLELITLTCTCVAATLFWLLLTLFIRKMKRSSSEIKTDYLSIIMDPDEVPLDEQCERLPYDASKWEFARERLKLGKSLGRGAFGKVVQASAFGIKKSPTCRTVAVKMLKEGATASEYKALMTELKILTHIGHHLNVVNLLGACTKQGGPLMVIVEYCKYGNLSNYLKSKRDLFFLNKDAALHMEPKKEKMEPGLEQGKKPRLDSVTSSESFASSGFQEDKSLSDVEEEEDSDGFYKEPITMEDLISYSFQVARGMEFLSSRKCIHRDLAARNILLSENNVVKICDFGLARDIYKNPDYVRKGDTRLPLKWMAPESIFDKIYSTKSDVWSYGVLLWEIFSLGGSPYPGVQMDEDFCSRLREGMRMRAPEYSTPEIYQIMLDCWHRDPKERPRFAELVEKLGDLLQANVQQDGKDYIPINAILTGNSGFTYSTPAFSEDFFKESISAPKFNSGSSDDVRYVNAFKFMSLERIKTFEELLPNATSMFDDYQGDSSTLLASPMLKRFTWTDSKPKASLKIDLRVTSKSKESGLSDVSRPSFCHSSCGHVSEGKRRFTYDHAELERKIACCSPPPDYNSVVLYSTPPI
Procedure: (§2) This assay directly monitored the ability of compounds to inhibit kinase phosphorylation by measuring non-phosphorylated and phosphorylated substrates in kinase reactions by using Mobility Shift Assays/IMAP™ analysis.
(§3) Add the kinase and DTT to 1× kinase buffer to form a 2.5× kinase solution; transfer 10 μL of 2.5× kinase solution to a 384-well reaction plate and add 1× kinase buffer to negative control wells. Incubate the plate for 10 min at room temperature; add FAM-labeled peptides, MgCl2, ATP and other reagents to 1× kinase buffer to form a 2.5× substrate solution; transfer 10 μL of the above 2.5× substrate solution to the 384-well reaction plate; incubate the plate at 28° C. for different times, and add 25 μL of stop solution to the 384-well reaction plate to stop the reaction. Read the conversion ratio data on CaliperEZ Reader II. Convert conversion rates into inhibition ratio data.
(§4) “Min” indicates the readout of the control well without the addition of kinase; and “Max” indicates the readout of the control well with the addition of DMSO. Fit IC50 values with XLFit excel add-in version 5.4.0.8.
(§5) X indicates the log value of compound concentration, and Y indicates the inhibition ratio (% inhibition).

melanin = assay: Binding capacity of compounds to melanin; format: in vitro ADME; conditions: Sepia officinalis (cuttlefish), melanin suspension (1 mg/mL); 1 mg/mL melanin suspension in PBS pH 7.4, 2 μM compound, 2 h at 37° C.; read-out: Fu % (percentage of free drug, not bound to melanin)
Source text: Pigmented eye tissues contain melanin in intracellular melanosomes. Drugs bind to melanin to varying degrees, ranging from non-binding to extensive binding. Therefore, melanin binding is an important feature that affects drug delivery and biodistribution in the eye. The binding capacity of a compound to the melanin must be considered in the development of ophthalmic drugs.
Melanin was derived from the melanin of cuttlefish (Sepia officinalis) and was commercially available from Sigma Aldrich (St Louis, MO).
First, prepare 1 mg/mL melanin suspension with PBS (pH 7.4). As a washing step for the matrix, centrifuge the suspended particles for 5 min at 3000 rpm. Resuspend the resulting particles in a fresh PBS buffer, heat to 37° C. over continuous shaking and incubate it for 1 h. Accurately pipette 2 μL of the test stock solution (0.1 mM) into 98 μL of melanin suspension (1 mg/mL) to achieve a final incubation concentration of 2 μM. Similarly, accurately pipette 2 μL of the stock solution (0.1 mM) to 98 μL of PBS buffer (containing 0.1% BSA) as a blank control sample. Incubate the samples in a shaker (80-90 rpm) for 2 h at 37° C. Then, centrifuge the samples at room temperature. Pipette 50 μL of the supernatant and add 50 μL of precipitant (containing an internal standard). After protein precipitation of all the above samples, centrifuge the samples to collect the supernatants, dilute the supernatants with water (if necessary) and inject them for analysis. At the same time, measure the positive controls, including the high-binding compounds Sunitinib and chloroquine and the low-binding compound celecoxib. Establish an LC-MS/MS method for determining compound concentrations, and calibrate the peak area ratio of analyte/internal standard (Analyte/AIS) in the measured sample by the dilution factor to take it as an alternative concentration for the sample for data processing. The binding rate (Fh) of a compound in melanin was calculated as: […]
Ctest was the concentration of the compound in the melanin-incubated sample or the peak area ratio of the test compound to the internal standard. Ccontrol was the concentration of the compound in the blank control sample or the peak area ratio of the test compound to the internal standard. Percentage of free drug (Fu %)=100−Fb The binding rates of the compounds of the present invention to melanin are shown in the table below: […]

FLT4 (VEGFR3) = FLT4 (VEGFR3) (Homo sapiens (Human), UniProt P35916); assay: Kinase inhibition, Mobility Shift Assay (VEGFR3); format: biochemical
Chain of FLT4 (VEGFR3) (P35916 25-1363): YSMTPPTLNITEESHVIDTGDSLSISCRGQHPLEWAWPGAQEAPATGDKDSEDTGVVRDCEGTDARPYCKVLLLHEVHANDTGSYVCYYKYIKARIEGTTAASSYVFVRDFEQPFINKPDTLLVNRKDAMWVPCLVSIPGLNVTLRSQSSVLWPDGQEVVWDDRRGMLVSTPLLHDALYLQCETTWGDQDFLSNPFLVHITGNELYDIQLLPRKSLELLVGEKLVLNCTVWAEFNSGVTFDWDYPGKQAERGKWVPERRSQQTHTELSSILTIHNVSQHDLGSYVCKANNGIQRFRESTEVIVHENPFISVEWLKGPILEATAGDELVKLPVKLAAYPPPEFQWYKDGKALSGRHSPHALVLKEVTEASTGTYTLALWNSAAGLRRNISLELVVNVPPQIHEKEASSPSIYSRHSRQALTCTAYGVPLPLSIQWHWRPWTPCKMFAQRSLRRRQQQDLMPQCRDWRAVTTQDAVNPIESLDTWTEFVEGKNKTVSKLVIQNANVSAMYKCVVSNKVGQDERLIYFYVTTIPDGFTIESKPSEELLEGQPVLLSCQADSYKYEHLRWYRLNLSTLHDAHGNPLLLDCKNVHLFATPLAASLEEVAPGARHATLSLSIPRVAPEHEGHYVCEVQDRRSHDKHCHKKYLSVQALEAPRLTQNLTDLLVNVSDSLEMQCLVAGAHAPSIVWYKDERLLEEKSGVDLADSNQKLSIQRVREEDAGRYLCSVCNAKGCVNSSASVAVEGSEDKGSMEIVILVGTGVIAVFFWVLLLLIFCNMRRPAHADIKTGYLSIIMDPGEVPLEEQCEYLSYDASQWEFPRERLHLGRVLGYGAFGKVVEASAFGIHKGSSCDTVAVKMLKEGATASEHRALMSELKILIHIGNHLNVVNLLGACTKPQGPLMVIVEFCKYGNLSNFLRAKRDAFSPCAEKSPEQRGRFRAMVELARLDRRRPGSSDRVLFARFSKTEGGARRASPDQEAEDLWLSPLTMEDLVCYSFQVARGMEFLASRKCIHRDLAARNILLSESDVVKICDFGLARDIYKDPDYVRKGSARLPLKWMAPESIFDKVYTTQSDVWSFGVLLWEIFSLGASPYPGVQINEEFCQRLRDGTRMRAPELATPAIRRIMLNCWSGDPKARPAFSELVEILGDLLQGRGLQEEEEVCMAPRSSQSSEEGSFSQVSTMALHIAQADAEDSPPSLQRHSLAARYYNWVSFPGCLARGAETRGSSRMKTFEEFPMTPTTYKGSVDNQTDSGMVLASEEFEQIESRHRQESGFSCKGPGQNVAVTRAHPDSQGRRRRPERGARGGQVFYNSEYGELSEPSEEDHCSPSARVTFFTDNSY
Procedure: as §2, §3, §4, §5

[1] = biological target: VEGFR2 autophosphorylation (pVEGFR2) in HUVEC cells (Homo sapiens (Human), UniProt P35968); assay: Inhibition of VEGF-induced VEGFR2 autophosphorylation in HUVEC cells (ELISA); format: cell-based; conditions: 50 ng/ml human VEGF, compound 1 h
Source text: Vascular endothelial growth factor receptor 2 (VEGFR2) is a primary receptor for VEGF-induced endothelial cell signaling. After ligand binding, VEGFR2 is autophosphorylated and activated. The main function of signaling from VEGFR2 is to induce vascularization during development and after tissue injury, and to bypass blocked blood vessels. Pathologically, VEGF and VEGFR2 are involved in tumor angiogenesis and vascular leakage. They are considered to be main participants in many different cancers and ocular diseases that accompany pathological neovascularization. This assay measured the ability of the compounds to inhibit VEGF-induced VEGFR2 autophosphorylation (pVEGFR2) in HUVEC cells by using ELISA.
Culture cells in a cell culture flask to reach a fusion degree of 60%-80% before cell inoculation. Dilute the cell suspension to […] with a pre-warmed complete medium. Add 80 μL of the cell suspension to all wells of a 96-well cell plate (Corning-3599); and incubate the plate overnight at 37° C. in the presence of 5% CO2. Dissolve the compound powder to 10 mM with DMSO and store it in a nitrogen cabinet. Compound dilution plate: Add a reference compound Ponatinib or a compound to be tested to a 96 V-well plate (Axygen-WIpp 2280) at concentrations achieved as follows: performing 3-fold gradient dilution starting from 5 mM (5 μL of 10 mM compound solution plus 5 μL of DMSO) for a total of 8 concentration points. […] Transfer 20 μL of the diluted compound from the intermediate plate to a cell plate. Then, incubate the cell plate for 1 h at 37° C. in the presence of 5% CO2. After the compound was treated for 1 h, add 25 μL of 250 ng/ml human VEGF at a final concentration of 50 ng/ml to a 96-well plate; and incubate the plate for 5 min at 37° C. in the presence of 5% CO2, centrifuge the plate for 10 min at 3,000 rpm, remove the medium and wash the cells once with 300 μL of pre-chilled DPBS per well. Then, centrifuge the plate for 10 min at 4,000 rpm, remove DPBS, and add 110 μL of pre-chilled 1× cell lysis buffer per well to the 96-well plate. Shake the plate for 40 min at 4° C. Then, freeze the plate in a refrigerator at −80° C. On the next day, remove the plate from the refrigerator at −80° C., thaw the plate, centrifuge the plate for 10 min at 3500 rpm, and add 100 μL of the supernatant per well to an ELISA plate. Seal the plate and incubate it for 2 h at 37° C. Wash the wells 4 times with 1× wash buffer. Add 100 μL of recombinant detection antibody per well. Seal the plate, incubate the plate for 1 h at 37° C., and repeat the step of plate washing. Add 100 μL of secondary antibody per well. Seal the plate, incubate the plate for 30 min at 37° C., and repeat the step of plate washing. Add 100 μL of TMB (protected from light) per well. Seal the plate, incubate the plate for 30 min at 37° C., and add 100 μL of the stop solution per well. Gently shake for 30 sec, measure the absorbance with a SpectraMax® 340 PC 384 Absorbance Microplate Reader within 30 min, and read an optical density value at 450 nm. Conduct data analysis using XL Fit software:
Conduct curve fitting using the 4 Parameter Logistic Model or Sigmoidal Dose-Response Model:
X indicating the log value of compound concentration, Y indicating the inhibition ratio (% inhibition), Top indicating the readout of the negative control wells, and bottom indicating the readout of the positive control well.

Chain of KDR (VEGFR2) (P35968 790-1356): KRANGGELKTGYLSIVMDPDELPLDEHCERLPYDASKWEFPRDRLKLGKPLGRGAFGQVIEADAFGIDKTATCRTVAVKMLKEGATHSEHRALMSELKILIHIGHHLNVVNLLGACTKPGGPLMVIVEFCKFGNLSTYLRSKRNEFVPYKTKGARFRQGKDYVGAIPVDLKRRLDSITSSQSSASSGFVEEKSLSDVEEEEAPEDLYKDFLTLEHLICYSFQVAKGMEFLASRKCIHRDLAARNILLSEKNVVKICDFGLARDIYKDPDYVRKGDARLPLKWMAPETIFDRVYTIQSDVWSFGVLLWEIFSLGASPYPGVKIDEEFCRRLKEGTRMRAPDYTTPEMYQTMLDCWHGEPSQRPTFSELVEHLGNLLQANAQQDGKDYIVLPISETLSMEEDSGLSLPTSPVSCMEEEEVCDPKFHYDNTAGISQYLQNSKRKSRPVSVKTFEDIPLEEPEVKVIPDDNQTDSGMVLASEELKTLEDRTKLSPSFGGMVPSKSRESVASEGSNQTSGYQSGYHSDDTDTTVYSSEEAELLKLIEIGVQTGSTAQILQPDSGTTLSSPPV

Row | SMILES | IC50 (KDR (VEGFR2)) | IC50 (EGFR) | IC50 (FLT1 (VEGFR1)) | fraction unbound at 2 h, 2 μM (melanin) | IC50 (FLT4 (VEGFR3)) | IC50 [1]
1 | CNC(=O)c1ccccc1Sc1ccc2c(NC(=O)NCCN3CCN(C)CC3)n[nH]c2c1 [Compound I-31] | > 100 nM | > 60000 nM | > 100 nM | 0.01 to 0.05 | > 100 nM | –
2 | CNC(=O)c1ccccc1Sc1ccc2c(/C=C/c3cnn(CCCN4CCCC4)c3)n[nH]c2c1 [Compound I-32, N-methyl-2-({3-[(E)-2-{1-[3-(pyrrolidin-1-yl)propyl]-1H-pyrazole-4-yl}vinyl]-1H-indazol-6-yl}thio)benzamide] | 1 to 10 nM | 6000 to 60000 nM | 1 to 10 nM | 0.01 to 0.05 | 1 to 10 nM | –
3 | CNC(=O)c1cccc(F)c1Sc1ccc2c(/C=C/c3ccc(OCCN4CCCC4)cn3)n[nH]c2c1 [Compound I-33, 3-fluoro-N-methyl-2-({3-[(E)-2-{5-[2-(pyrrolidin-1-yl)ethoxy]pyridin-2-yl}vinyl]-1H-indazol-6-yl}thio)benzamide] | 1 to 10 nM | 6000 to 60000 nM | 1 to 10 nM | > 0.05 | 1 to 10 nM | –
4 | CNC(=O)c1ccc(F)cc1Sc1ccc2c(/C=C/c3ccc(OCCN4CCCC4)cn3)n[nH]c2c1 [Compound I-35] | 1 to 10 nM | 6000 to 60000 nM | 1 to 10 nM | 0.01 to 0.05 | 1 to 10 nM | –
5 | CNC(=O)c1c(F)cccc1Sc1ccc2c(/C=C/c3ccc(OCCN4CCCC4)cn3)n[nH]c2c1 [Compound I-36, 2-fluoro-N-methyl-6-({3-[(E)-2-{5-[2-(pyrrolidin-1-yl)ethoxy]pyridin-2-yl}vinyl]-1H-indazol-6-yl}thio)benzamide] | 1 to 10 nM | 6000 to 60000 nM | > 100 nM | > 0.05 | 1 to 10 nM | –
6 | CN1CCN(c2ccc(/C=C/c3n[nH]c4cc(Sc5ccccc5C(=O)NC5CC5)ccc34)nc2)CC1 [Compound I-38, N-cyclopropyl-2-({3-[(E)-2-[5-(4-methylpiperazin-1-yl)pyridin-2-yl]vinyl]-1H-indazol-6-yl}thio)benzamide] | ≤ 1 nM | 600 to 6000 nM | ≤ 1 nM | 0.01 to 0.05 | ≤ 1 nM | –
7 | CNC(=O)c1ccccc1Sc1ccc2c(/C=C/c3ccc(OC[C@@H]4CCN(C)C4)cn3)n[nH]c2c1 [Compound I-39, N-methyl-2-({3-[(E)-2-(5-{[(3R)-1-methylpyrrolidin-3-yl]methoxy}pyridin-2-yl)vinyl]-1H-indazol-6-yl}thio)benzamide] | ≤ 1 nM | 6000 to 60000 nM | ≤ 1 nM | 0.01 to 0.05 | 1 to 10 nM | –
8 | O=C(NC1CC1)c1ccccc1Sc1ccc2c(/C=C/c3cc(OCCN4CCCC4)ccn3)n[nH]c2c1 [Compound I-110, N-cyclopropyl-2-({3-[(E)-2-{4-[2-(pyrrolidin-1-yl)ethoxy]pyridin-2-yl}vinyl]-1H-indazol-6-yl}thio)benzamide] | 1 to 10 nM | 6000 to 60000 nM | – | – | – | 1 to 5 nM
9 | O=C(NC1CC1)c1ccccc1Sc1ccc2c(/C=C/c3cc(CN4CCCC4)ccn3)n[nH]c2c1 [Compound I-115, N-cyclopropyl-2-({3-[(E)-2-{4-[(pyrrolidin-1-yl)methyl]pyridin-2-yl}vinyl]-1H-indazol-6-yl}thio)benzamide] | 1 to 10 nM | 6000 to 60000 nM | 1 to 10 nM | 0.01 to 0.05 | 10 to 100 nM | –
10 | CCNC(=O)c1cccc(F)c1Sc1ccc2c(/C=C/c3cc(CCCN4CCCC4)ccn3)n[nH]c2c1 [Compound I-116, N-ethyl-3-fluoro-2-({3-[(E)-2-{4-[3-(pyrrolidin-1-yl)propyl]pyridin-2-yl}vinyl]-1H-indazol-6-yl}thio)benzamide] | 10 to 100 nM | > 60000 nM | 10 to 100 nM | 0.01 to 0.05 | 10 to 100 nM | –
11 | O=C(NC1CC1)c1ccccc1Sc1ccc2c(/C=C/c3cccc(CN4CCCC4)n3)n[nH]c2c1 [Compound I-117, N-cyclopropyl-2-({3-[(E)-2-{6-[(pyrrolidin-1-yl)methyl]pyridin-2-yl}vinyl]-1H-indazol-6-yl}thio)benzamide] | 1 to 10 nM | > 60000 nM | 1 to 10 nM | 0.01 to 0.05 | 1 to 10 nM | –
12 | O=C(NC1CC1)c1cc(F)ccc1Sc1ccc2c(/C=C/c3cc(OCCN4CCCC4)ccn3)n[nH]c2c1 [Compound I-118, N-cyclopropyl-5-fluoro-2-({3-[(E)-2-{4-[2-(pyrrolidin-1-yl)ethoxy]pyridin-2-yl}vinyl]-1H-indazol-6-yl}thio)benzamide] | 1 to 10 nM | > 60000 nM | 10 to 100 nM | < 0.01 | 10 to 100 nM | –
